Laboratory results published in patent publication US11116740B2, “Methods for use in support of planned supplement and food ingredient products for diagnosis and treatment of metabolic syndrome” (priority 2015, dated 2021).

How the values were obtained:
[1] = Serum fatty acid metabolomics (UPLC-MS/MS), feeding study
Procedure: This study examined global metabolic profiles in six dolphins (“Group A dolphins”). The dolphins lived in netted enclosures within San Diego Bay. The dolphins started on a 100% capelin diet. Group A dolphins were fed one-third of their daily diet in the morning after their routine overnight fast and 2h postprandial, in-water, and trained blood samples were drawn (typically near 10:00 a.m.). An additional four dolphins (“Group C dolphins”) were fed the capelin diet.
Two hour post-prandial samples were collected from the dolphins at baseline (week 0) and at four time points following the switch to the modified diet: 6, 12, 18, and 24 weeks. Routine monthly samples collected from four reference dolphins that were housed in the same environment as the Group A dolphins were assessed for glucose, triglycerides, ferritin, and percent serum fatty acids.
Sample Preparation: Samples were prepared using the automated MicroLab STAR® system from Hamilton Company. Several recovery standards were added prior to the first step in the extraction process for QC purposes. Proteins were precipitated with methanol under vigorous shaking for 2 min (Glen Mills GenoGrinder 2000) followed by centrifugation. The resulting extract was divided into five fractions: two for analysis by two separate reverse phase (RP)/UPLC-MS/MS methods with positive ion mode electrospray ionization (ESI), one for analysis by RP/UPLC-MS/MS with negative ion mode ESI, one for analysis by HILIC/UPLC-MS/MS with negative ion mode ESI, and one sample was reserved. Samples were placed briefly on a TurboVap® (Zymark) to remove the organic solvent. The sample extracts were stored overnight under nitrogen before preparation for analysis.
Ultrahigh Performance Liquid Chromatography-Tandem Mass Spectroscopy (UPLC-MS/[…]): Each of four methods utilized a Waters ACQUITY ultra-performance liquid chromatography (UPLC) and a Thermo Scientific Q-Exactive high resolution/accurate mass spectrometer interfaced with a heated electrospray ionization (HESI-II) source and Orbitrap mass analyzer operated at 35,000 mass resolution. A sample extract was dried, then reconstituted in solvents compatible to each of the four methods. Each reconstitution solvent contained a series of standards at fixed concentrations to ensure injection and chromatographic consistency. A first aliquot was analyzed using acidic positive ion conditions, chromatographically optimized for more hydrophilic compounds. In this method, the extract was gradient eluted from a C18 column (Waters UPLC BEH C18-2. 1×100 mm, 1.7 μm) using water and methanol, containing 0.05% perfluoropentanoic acid (PFPA) and 0.1% formic acid (FA). A second aliquot was also analyzed using acidic positive ion conditions, however it was chromatographically optimized for more hydrophobic compounds. In this method, the extract was gradient eluted from the same afore mentioned C18 column using methanol, acetonitrile, water, 0.05% PFPA and 0.01% FA and was operated at an overall higher organic content. A third aliquot was analyzed using basic negative ion optimized conditions using a separate dedicated C 18 column. The basic extracts were gradient eluted from the column using methanol and water, however with 6.5 mM Ammonium Bicarbonate at pH 8. […] The MS analysis alternated between MS and data-dependent MSn scans using dynamic exclusion. The scan range varied slighted between methods but covered 70-1000 m/z.
Data Extraction and Compound Identification: Raw data was extracted, peak-identified and QC processed using Metabolon's hardware and software. The systems were based on a web-service platform utilizing Microsoft's .NET technologies, which ran on high-performance application servers and fiber-channel storage arrays in clusters to provide active failover and load-balancing. Compounds were identified by comparison to library entries of purified standards or recurrent unknown entities.

[2] = Serum fatty acid profile (% serum fatty acids, GC/MS), feeding study; assay type: in vivo, bottlenose dolphin (Tursiops truncatus)
Procedure: The dolphins started on a 100% capelin diet.
Changes in percent serum for the targeted fatty acids (C17:0, C20:4n6, and C22:0), as well as insulin, glucose, triglycerides, iron, transferrin saturation, and ferritin, were assessed among feeding study dolphins during weeks 3, 6, 12, 18 and 24 and compared to week 0 using pairwise comparison t-tests. Erythrocyte membrane fatty acids were measured during weeks 3, 6, 12, 18, and 24. Serum ferritin in Group A dolphins increased.
Blood was collected into BD Vacutainer serum separator tubes (for insulin, iron, ferritin, serum fatty acids profile, and serum chemistry), EDTA BD Vacutainer blood collection tubes (for erythrocyte fatty acid profile), and Lithium Heparin BD Vacutainer blood collection tubes (for plasma chemistry, including triglycerides). Blood tubes were centrifuged at 3000 rpm for 10 minutes within 30-60 minutes of collection and chilled during processing until shipment. Remaining serum/plasma was transferred to cryovials and stored at −80° C. until shipment on dry ice via overnight courier to the reference laboratories.
Serum and red blood cell membrane fatty acid profiles were performed by the Genetics Laboratories at the Kennedy Krieger Institute. Fatty acids were analyzed by capillary gas chromatography/mass spectrometry of pentaflourobenzyl bromide fatty acid derivatives using an AT-Silar-100 column (Grace, Columbia, Md. 21044) as previously described. For red blood cells only, the lipids were extracted with hexane:isopropanol before analysis. Each run was required to pass clinical laboratory quality control before the data were released. CV % were typically under 10%. Percent fatty acids in serum was used as a sturdier index to help reduce potential variability in serum among study dolphins. Iron, TIBC, and ferritin were analyzed at the Kansas State Veterinary Diagnostic Laboratory by colorimetric analysis on the Roche Cobas Mira (Roche Diagnostics, Indianapolis, Ind. 46250) per the manufacturer's protocol. Plasma triglycerides and glucose were directly measured using the Roche Cobas 8000 system (Roche Diagnostics, Indianapolis, Ind. 46250) per the manufacturers' protocol. Glucose was measured photometrically at the Animal Health Diagnostic Center at Cornell University on the Roche Diagnostics Modular Analytics P Module clinical chemistry analyzer (Roche Diagnostics, Indianapolis, Ind. 46250). Total insulin was analyzed at ARUP Laboratories by ultrafiltration/quantitative chemiluminescent immunoassay on the Siemens ADVIA Centaur Immunoassay system (Siemens Medical Solutions USA, Inc., Malvern, Pa. 19355).

[3] = bottlenose dolphin (Tursiops truncatus), in vivo, 6 weeks
[4] = bottlenose dolphin (Tursiops truncatus), in vivo, 12 weeks
[5] = bottlenose dolphin (Tursiops truncatus), in vivo, 18 weeks
[6] = bottlenose dolphin (Tursiops truncatus), in vivo, 24 weeks
[7] = bottlenose dolphin (Tursiops truncatus), in vivo, 3 weeks
[8] = Group A dolphins, modified diet, proportional to value at outset of study

Row | serum concentration 6 wk / 0 wk [1, 3] | serum concentration 12 wk / 0 wk [1, 4] | serum concentration 18 wk / 0 wk [1, 5] | serum concentration 24 wk / 0 wk [1, 6] | Serum fatty acids (%) [2, 7] | Serum fatty acids (%) [2, 3] | Serum fatty acids (%) [2, 4] | Serum fatty acids (%) [2, 5] | Serum fatty acids (%) [2, 6] | serum concentration 6 wk / 0 wk [1, 8] | serum concentration 12 wk / 0 wk [1, 8] | serum concentration 18 wk / 0 wk [1, 8] | serum concentration 24 wk / 0 wk [1, 8] | serum levels compared to week 0 ([2]; in vivo) | Compound | Serum fatty acids (%) ([2]; Group A dolphins, modified diet, week 3) | Serum fatty acids (%) ([2]; Group A dolphins, modified diet, week 6) | Serum fatty acids (%) ([2]; Group A dolphins, modified diet, week 12) | Serum fatty acids (%) ([2]; Group A dolphins, modified diet, week 18) | Serum fatty acids (%) ([2]; Group A dolphins, modified diet, week 24)
1 | 1.19 | 1.62 | 1.5 | 1.19 | 6 ± 2% | 7 ± 2% | 10 ± 4% | 10 ± 3% | 10 ± 3% | – | – | – | – | – | CCCCC/C=C\C/C=C\C/C=C\C/C=C\CCCC(=O)O [Arachidonic acid, (5Z,8Z,11Z,14Z)-icosa-5,8,11,14-tetraenoic acid] | – | – | – | – | –
2 | – | – | – | – | – | – | – | – | – | – | – | – | – | – | CCCCCCCCCCCCCCCCCCCCCC(=O)O [Behenic acid] | 0.21 ± 0.06% | 0.25 ± 0.07% | 0.28 ± 0.06% | 0.26 ± 0.04% | 0.29 ± 0.04%
3 | – | – | – | – | 0.5 ± 0.2% | 0.5 ± 0.1% | 0.7 ± 0.3% | 0.8 ± 0.4% | 0.7 ± 0.2% | 1.25 | 1.65 | 1.72 | 1.21 | higher | CCCCCCCCCCCCCCCCC(=O)O [Heptadecanoic acid, heptadecanoic acid] | – | – | – | – | –
